Where two headings read alike, the source gives them in different places.
Columns and labels:
MOLM-13 cells = assay: Mechanism of action studies, gene expression measured with qPCR in MOLM-13 cells; assay type: cell-based
Description: (§1) MOLM-13 or MV4-11 cells were seeded in a 6-well plate at a density of 500,000 cells/well in 2 ml of culture medium and treated with either Cpd. No. 210 or Cpd. No. 366 at the concentrations as indicated. About 4 days after the treatments, cells were harvested and the expression of each gene was measured with qPCR.
as §1, with “MOLM-13” for “MOLM-13 or MV4-11”, “366” for “210”, “238” for “366”, “66 hours” for “4 days”, “treatment,” for “treatments,”
as §1, with “500,000-800,000” for “500,000”, “366” for “210”, “215” for “366”, “40 hours” for “4 days”, “treatment,” for “treatments,”

[1] = Cell growth inhibition, CellTiter-Glo Luminescent Cell Viability Assay; assay type: cell-based
In short: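 Cells seeded at 2,000/well with serially diluted compound and cultured 4 days at 37 °C, 5% CO2. Viability read by CellTiter-Glo luminescence; IC50 derived from dose-response.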

menin protein = menin protein (Homo sapiens (Human), UniProt O00255); assay: biochemical; assay type: binding
In short: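 Test compounds displaced FAM-MM2 (2 nM) from 4 nM menin after 30 min equilibration at room temperature in PBS buffer containing bovine γ-globulin, 4% DMSO and Triton X-100. Binding was followed by fluorescence polarization. Competition curves were fitted by nonlinear regression to give IC50 and Ki.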

MV4-11 cells = assay: Mechanism of action studies, gene expression measured with qPCR in MV4-11 cells; assay type: cell-based
Description: as §1
as §1, with “500,000-800,000” for “500,000”, “366” for “210”, “215” for “366”, “40 hours” for “4 days”, “treatment,” for “treatments,”

[2] = 4 days of treatment, dose dependent
[3] = MOLM-13, 96 h, read-out: Cell Growth Inhibition IC50 (μM) MOLM13
[4] = MV4-11, 96 h, read-out: Cell Growth Inhibition IC50 (μM) MV4, 11
[5] = FP competitive binding, menin protein 4 nM, FAM-MM2 probe 2 nM, read-out: Menin Binding Affinity IC50
[6] = 66 hours of treatment, dose dependent
[7] = MOLM-13, 96 h, MOLM13 cells, 4 days, CellTiter-Glo, read-out: Cell Growth Inhibition IC50 (μM) MOLM13
[8] = MV4-11, 96 h, MV4, 11 cells, 4 days, CellTiter-Glo, read-out: Cell Growth Inhibition IC50 (μM) MV4, 11

Sequence of menin protein (O00255 whole entry): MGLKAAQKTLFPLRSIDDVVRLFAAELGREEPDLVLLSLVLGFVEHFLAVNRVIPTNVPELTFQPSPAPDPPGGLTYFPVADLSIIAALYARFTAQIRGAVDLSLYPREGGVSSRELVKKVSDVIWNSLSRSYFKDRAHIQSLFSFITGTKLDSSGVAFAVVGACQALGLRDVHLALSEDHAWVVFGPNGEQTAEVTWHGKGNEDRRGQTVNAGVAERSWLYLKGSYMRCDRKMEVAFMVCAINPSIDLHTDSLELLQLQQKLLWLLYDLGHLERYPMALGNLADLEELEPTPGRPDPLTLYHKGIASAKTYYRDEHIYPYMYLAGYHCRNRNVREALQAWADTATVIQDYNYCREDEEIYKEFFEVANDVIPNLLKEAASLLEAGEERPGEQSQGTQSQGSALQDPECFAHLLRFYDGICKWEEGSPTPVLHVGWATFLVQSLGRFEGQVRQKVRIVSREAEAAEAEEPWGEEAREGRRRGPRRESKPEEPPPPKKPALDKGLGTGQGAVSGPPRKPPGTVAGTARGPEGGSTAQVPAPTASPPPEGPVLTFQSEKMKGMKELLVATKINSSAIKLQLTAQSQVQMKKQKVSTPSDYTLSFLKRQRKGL

With `CNC(=O)O[C@H]1CCC[C@@H]1C1(C2CCN(CC3CN(c4ccc(S(=O)(=O)c5ccncc5)cc4)C3)CC2)CN(C)Cc2ccccc21` (mixture of isomers) [Cpd. No. 210, rac-(1S,2R)-2-(2-methyl-4-(1-((1-(4-(pyridin-4-ylsulfonyl)phenyl)azetidin-3-yl)methyl)piperidin-4-yl)-1,2,3,4-tetrahydroisoquinolin-4-yl)cyclopentyl methylcarbamate] the MEIS1 gene expression (MOLM-13 cells; 4 days of treatment) was “reduced”, the HOX7 gene expression (MOLM-13 cells; [2]) was “reduced” and the HOX10 gene expression (MOLM-13 cells; [2]) was “reduced”. The IC50 [1, 3] was 0.135 ± 0.093 µM, the IC50 [1, 4] was 0.023 ± 0.016 µM and the IC50 (menin protein; Menin Binding Affinity IC50 (μM)) was 0.004 µM. The HOX7 gene expression (MV4-11 cells; 4 days of treatment) was “not as robust as those of HOX10”, the MEIS1 gene expression (MV4-11 cells; 4 days of treatment) was “reduced” and the MYB gene expression (MV4-11 cells; 4 days of treatment) was “no effect”. For the same compound, the HOX10 gene expression (MV4-11 cells; [2]) was “reduced”.

`CNC(=O)O[C@H]1CCC[C@@H]1C(C#N)(c1ccccc1)C1CCN(CC2CN(c3ccc(S(=O)(=O)c4ccncc4)cc3)C2)CC1` (mixture of isomers) [Cpd. No. 215, rac-(1S,2R)-2-(cyano(phenyl)(1-((1-(4-(pyridin-4-ylsulfonyl)phenyl)azetidin-3-yl)methyl)piperidin-4-yl)methyl)cyclopentyl methylcarbamate] showed an IC50 ([1]; MOLM-13, 96 h, read-out: Cell Growth Inhibition IC50 (μM) MOLM13, MOLM13 cells, 4 days, CellTiter-Glo) of 0.415 ± 0.208 µM, an IC50 ([1]; MV4-11, 96 h, read-out: Cell Growth Inhibition IC50 (μM) MV4, 11, MV4, 11 cells, 4 days, CellTiter-Glo) of 0.173 ± 0.048 µM and an IC50 (menin protein; [5]) of 0.006 µM. For the same compound, the HOX7 gene expression (MV4-11 cells; 40 hours of treatment) was “Neither Cpd. No. 366 nor Cpd. No. 215 showed an effect”.

For `CNC(=O)O[C@H]1CCC[C@@H]1C(Cn1ccnc1)(c1ccccc1)C1CCN(CC2CN(c3ccc(C#N)cc3)C2)CC1` (mixture of isomers) [Cpd. No. 366, rac-(1S,2R)-2-(1-(1-((1-(4-cyanophenyl)azetidin-3-yl)methyl)piperidin-4-yl)-2-(1H-imidazol-1-yl)-1-phenylethyl)cyclopentyl methylcarbamate], the MEIS1 gene expression (MOLM-13 cells; 40 hours of treatment) was “reduced”, the “all the tested HOX genes (HOX7, HOX9, HOX10, HOX11) expression” value (MOLM-13 cells; 40 hours of treatment, dose dependent) was “reduces” and the ITGAM gene expression (MOLM-13 cells; 66 hours of treatment) was “not effect”. The MEIS1 gene expression (MOLM-13 cells; 66 hours of treatment) was “reduced”, the HOX7 gene expression (MOLM-13 cells; [6]) was “reduced” and the HOX10 gene expression (MOLM-13 cells; [6]) was “reduced”. For the same compound, the MEIS1 gene expression (MOLM-13 cells; 4 days of treatment) was “reduced”, the HOX7 gene expression (MOLM-13 cells; [2]) was “reduced” and the HOX10 gene expression (MOLM-13 cells; [2]) was “reduced”. The MYB gene expression (MOLM-13 cells; 4 days of treatment, high concentration) was “may reduce”, the IC50 [1, 3] was 0.14 µM and the IC50 [1, 4] was 0.035 µM. For the same compound, the IC50 (menin protein; [5]) was 0.009 µM, the HOX7 gene expression (MV4-11 cells; 40 hours of treatment) was “Neither Cpd. No. 366 nor Cpd. No. 215 showed an effect” and the HOX10 gene expression (MV4-11 cells; 40 hours of treatment) was “significantly reduced”. For the same compound, the HOX11 gene expression (MV4-11 cells; 40 hours of treatment) was “significantly reduced”, the MEIS1 gene expression (MV4-11 cells; 40 hours of treatment) was “reduced” and the HOX7 gene expression (MV4-11 cells; 4 days of treatment) was “not as robust as those of HOX10”. The MEIS1 gene expression (MV4-11 cells; 4 days of treatment) was “reduced”, the MYB gene expression (MV4-11 cells; 4 days of treatment) was “no effect” and the HOX10 gene expression (MV4-11 cells; [2]) was “reduced”.

With `CNC(=O)O[C@H]1CCC[C@@H]1C(Cn1ccnc1)(c1ccccc1)C1CCN(CC2CN(c3ccc(S(=O)(=O)c4cnn(C)c4)cc3)C2)CC1` (mixture of isomers) [compound 238, rac-(1S,2R)-2-(2-(1H-imidazol-1-yl)-1-(1-((1-(4-((1-methyl-1H-pyrazol-4-yl)sulfonyl)phenyl)azetidin-3-yl)methyl)piperidin-4-yl)-1-phenylethyl)cyclopentyl methylcarbamate] the ITGAM gene expression (MOLM-13 cells; 66 hours of treatment) was “not effect”, the MEIS1 gene expression (MOLM-13 cells; 66 hours of treatment) was “reduced” and the HOX7 gene expression (MOLM-13 cells; [6]) was “reduced”. The HOX10 gene expression (MOLM-13 cells; [6]) was “reduced”, the IC50 [1, 3] was 0.16 µM and the IC50 [1, 4] was 0.027 µM. For the same compound, the IC50 (menin protein; [5]) was 0.008 µM.

`CCN1Cc2ccccc2C(C2CCCC2)(C2CCN(CC3CN(c4ccc(S(=O)(=O)c5ccnc(C(F)(F)F)c5)cc4)C3)CC2)C1` (stereo not drawn) [compound 157, 4-cyclopentyl-2-ethyl-4-(1-((1-(4-((2-(trifluoromethyl)pyridin-4-yl)sulfonyl)phenyl)azetidin-3-yl)methyl)piperidin-4-yl)-1,2,3,4-tetrahydroisoquinoline] gave an IC50 [1, 7] of 4.4 µM, an IC50 [1, 8] of 1.8 µM and an IC50 (menin protein; [5]) of 0.016 µM.

`CCN1Cc2ccccc2C(C2CCCC2)(C2CCN(CC3CN(c4ccc(S(=O)(=O)c5ccnc6cnccc56)cc4)C3)CC2)C1` (stereo not drawn) [compound 158, 4-((4-(3-((4-(4-cyclopentyl-2-ethyl-1,2,3,4-tetrahydroisoquinolin-4-yl)piperidin-1-yl)methyl)azetidin-1-yl)phenyl)sulfonyl)-1,7-naphthyridine] gave an IC50 [1, 7] of 1.56 µM, an IC50 [1, 8] of 0.8 µM and an IC50 (menin protein; [5]) of 0.008 µM.

Work on `CCN1Cc2ccccc2C(C2CCCC2)(C2CCN(CC3CN(c4ccc(S(=O)(=O)c5ccc(C(=O)O)cc5)cc4)C3)CC2)C1` (stereo not drawn) [compound 164, 4-((4-(3-((4-(4-cyclopentyl-2-ethyl-1,2,3,4-tetrahydroisoquinolin-4-yl)piperidin-1-yl)methyl)azetidin-1-yl)phenyl)sulfonyl)benzoic acid] yielded an IC50 [1, 7] of 0.72 µM, an IC50 [1, 8] of 0.27 µM and an IC50 (menin protein; [5]) of 0.008 µM.

In the case of `O=S(=O)(c1ccccc1)c1ccc(N2CC(CN3CCC(C(CN4CCCC4)(c4ccccc4)[C@H]4C=CCC4)CC3)C2)cc1` (stereo partly drawn) [compound 356, 4-(1-((R)-cyclopent-2-en-1-yl)-1-phenyl-2-(pyrrolidin-1-yl)ethyl)-1-((1-(4-(phenylsulfonyl)phenyl)azetidin-3-yl)methyl)piperidine], the IC50 [1, 7] is reported as 0.69 µM, the IC50 [1, 8] is reported as 0.71 µM and the IC50 (menin protein; [5]) is reported as 0.022 µM.

— patent US10899738B2 (THE REGENTS OF THE UNIVERSITY OF MICHIGAN, priority 2016, dated 2021)
